Results reported in PubChem BioAssay AID1963843 (Molecular Pharmacology Branch, DTP, NCI, 2024).

Tested on: 616215-338-R-J1-PDC complex spheroid viability
Experiment: Anticancer human tumor 616215-338-R-J1-PDC patient-derived colon adenocarcinoma cell line growth inhibition [POLQ]
Details: for IC50: curve of first compound; for viability, T/C: stronger effect = lower value
In short: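 PDC + HUVEC + MSC complex spheroids; POLQ inhibitors ± partner drugs; top conc. at/near clinical Cmax, else 10 microM (SN-38 1 microM), half-log dilutions; 37 degrees C, 5% CO2.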

[1] = second compound 0.0316 µM, first compound 0.0316 µM
[2] = second compound 0.0316 µM, first compound 0.1 µM
[3] = second compound 0.0316 µM, first compound 0.316 µM
[4] = second compound 0.0316 µM, first compound 1 µM
[5] = second compound 0.0316 µM, first compound 3.16 µM
[6] = second compound 0.0316 µM, first compound 10 µM
[7] = second compound 0.1 µM, first compound 0.0316 µM
[8] = second compound 0.1 µM, first compound 0.1 µM
[9] = second compound 0.1 µM, first compound 0.316 µM
[10] = second compound 0.1 µM, first compound 1 µM
[11] = second compound 0.1 µM, first compound 3.16 µM
[12] = second compound 0.1 µM, first compound 10 µM
[13] = second compound 0.316 µM, first compound 0.0316 µM
[14] = second compound 0.316 µM, first compound 0.1 µM
[15] = second compound 0.316 µM, first compound 0.316 µM
[16] = second compound 0.316 µM, first compound 1 µM
[17] = second compound 0.316 µM, first compound 3.16 µM
[18] = second compound 0.316 µM, first compound 10 µM
[19] = second compound 1 µM, first compound 0.0316 µM
[20] = second compound 1 µM, first compound 0.1 µM
[21] = second compound 1 µM, first compound 0.316 µM
[22] = second compound 1 µM, first compound 1 µM
[23] = second compound 1 µM, first compound 3.16 µM
[24] = second compound 1 µM, first compound 10 µM
[25] = second compound 3.16 µM, first compound 0.0316 µM
[26] = second compound 3.16 µM, first compound 0.1 µM
[27] = second compound 3.16 µM, first compound 0.316 µM
[28] = second compound 3.16 µM, first compound 1 µM
[29] = second compound 3.16 µM, first compound 3.16 µM
[30] = second compound 3.16 µM, first compound 10 µM
[31] = second compound 10 µM, first compound 0.0316 µM
[32] = second compound 10 µM, first compound 0.1 µM
[33] = second compound 10 µM, first compound 0.316 µM
[34] = second compound 10 µM, first compound 1 µM
[35] = second compound 10 µM, first compound 3.16 µM
[36] = second compound 10 µM, first compound 10 µM
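Further: spheroids exposed to compounds for one week before readout.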
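Wherever viability, T/C is given: percent viability relative to DMSO vehicle wells taken as 100%.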

C#Cc1c(F)ccc2cc(O)cc(-c3ncc4c(N5CC6CCC(C5)N6)nc(OCC56CCCN5CC(F)C6)nc4c3F)c12 (stereo unspecified) + Nc1ccc(C#CCN(C(=O)Cc2ncc(C(F)(F)F)cc2C(F)(F)F)c2ccc(F)cc2)nn1
IC50 (second compound 0.0316 µM): 7.31 µM | IC50 (second compound 0.1 µM): 4.11 µM | IC50 (second compound 0.316 µM): 3.43 µM | IC50 (second compound 1 µM): 6.65 µM | IC50 (second compound 3.16 µM): 6.47 µM | IC50 (second compound 10 µM): 2.49 µM | viability, T/C [1]: 105% | viability, T/C [2]: 96.2% | viability, T/C [3]: 98.5% | viability, T/C [4]: 88.6% | viability, T/C [5]: 62.5% | viability, T/C [6]: 45.3% | viability, T/C [7]: 97.1% | viability, T/C [8]: 95.9% | viability, T/C [9]: 90.4% | viability, T/C [10]: 75.3% | viability, T/C [11]: 56.9% | viability, T/C [12]: 29.2% | viability, T/C [13]: 111% | viability, T/C [14]: 112% | viability, T/C [15]: 75.2% | viability, T/C [16]: 63.3% | viability, T/C [17]: 58.6% | viability, T/C [18]: 39% | viability, T/C [19]: 103% | viability, T/C [20]: 96.2% | viability, T/C [21]: 91.3% | viability, T/C [22]: 81.9% | viability, T/C [23]: 53.7% | viability, T/C [24]: 47.9% | viability, T/C [25]: 84.7% | viability, T/C [26]: 89.2% | viability, T/C [27]: 99.5% | viability, T/C [28]: 68.8% | viability, T/C [29]: 68.1% | viability, T/C [30]: 40.7% | viability, T/C [31]: 92.9% | viability, T/C [32]: 86.2% | viability, T/C [33]: 74.6% | viability, T/C [34]: 57.1% | viability, T/C [35]: 50.6% | viability, T/C [36]: 33.7%

CC1COCCN1c1cc(C2(O)CC3CCC(C2)O3)c2cnn(-c3ccn[nH]3)c2n1 (stereo unspecified) + Nc1ccc(C#CCN(C(=O)Cc2ncc(C(F)(F)F)cc2C(F)(F)F)c2ccc(F)cc2)nn1
IC50 (second compound 0.0316 µM): 0.337 µM | IC50 (second compound 0.1 µM): 0.276 µM | IC50 (second compound 0.316 µM): 0.271 µM | IC50 (second compound 1 µM): 0.25 µM | IC50 (second compound 3.16 µM): 0.143 µM | IC50 (second compound 10 µM): 0.16 µM | viability, T/C [1]: 94.8% | viability, T/C [2]: 67.6% | viability, T/C [3]: 52.2% | viability, T/C [4]: 37.1% | viability, T/C [5]: 24.3% | viability, T/C [6]: 17.9% | viability, T/C [7]: 98.6% | viability, T/C [8]: 76.6% | viability, T/C [9]: 37.8% | viability, T/C [10]: 38.1% | viability, T/C [11]: 24.3% | viability, T/C [12]: 15.3% | viability, T/C [13]: 93.8% | viability, T/C [14]: 76.3% | viability, T/C [15]: 42% | viability, T/C [16]: 35.2% | viability, T/C [17]: 27.6% | viability, T/C [18]: 19.9% | viability, T/C [19]: 94.1% | viability, T/C [20]: 69.1% | viability, T/C [21]: 39.5% | viability, T/C [22]: 36.8% | viability, T/C [23]: 28.6% | viability, T/C [24]: 18.5% | viability, T/C [25]: 92.8% | viability, T/C [26]: 54.9% | viability, T/C [27]: 36.3% | viability, T/C [28]: 26.7% | viability, T/C [29]: 27.3% | viability, T/C [30]: 14.6% | viability, T/C [31]: 101% | viability, T/C [32]: 56.2% | viability, T/C [33]: 36.6% | viability, T/C [34]: 26.9% | viability, T/C [35]: 24.2% | viability, T/C [36]: 9.04%

COc1cc2cc(C(=O)CCC(=O)O)sc2cc1OC + Nc1ccc(C#CCN(C(=O)Cc2ncc(C(F)(F)F)cc2C(F)(F)F)c2ccc(F)cc2)nn1
IC50 (second compound 0.0316 µM): > 10 µM | IC50 (second compound 0.1 µM): > 10 µM | IC50 (second compound 0.316 µM): > 10 µM | IC50 (second compound 1 µM): > 10 µM | IC50 (second compound 3.16 µM): > 10 µM | IC50 (second compound 10 µM): > 10 µM | viability, T/C [1]: 109% | viability, T/C [2]: 105% | viability, T/C [3]: 110% | viability, T/C [4]: 108% | viability, T/C [5]: 109% | viability, T/C [6]: 102% | viability, T/C [7]: 108% | viability, T/C [8]: 106% | viability, T/C [9]: 117% | viability, T/C [10]: 104% | viability, T/C [11]: 119% | viability, T/C [12]: 108% | viability, T/C [13]: 112% | viability, T/C [14]: 108% | viability, T/C [15]: 105% | viability, T/C [16]: 108% | viability, T/C [17]: 113% | viability, T/C [18]: 99.9% | viability, T/C [19]: 110% | viability, T/C [20]: 102% | viability, T/C [21]: 101% | viability, T/C [22]: 113% | viability, T/C [23]: 115% | viability, T/C [24]: 102% | viability, T/C [25]: 108% | viability, T/C [26]: 101% | viability, T/C [27]: 108% | viability, T/C [28]: 103% | viability, T/C [29]: 107% | viability, T/C [30]: 101% | viability, T/C [31]: 95.3% | viability, T/C [32]: 91.1% | viability, T/C [33]: 86.8% | viability, T/C [34]: 97.2% | viability, T/C [35]: 89.3% | viability, T/C [36]: 79.2%
